# Data taken from US7119256B2, “Gene encoding acetolactate synthase” (priority 2000, dated 2006).
# What was measured:
# wild type ALS protein = target: T1, wild type ALS protein (Oryza sativa subsp. japonica, UniProt Q6K2E8); experiment: Herbicide sensitivity of crude wild type ALS expressed in E. coli, in presence of valine; type: biochemical, rice; design: one type of cDNA containing a full length ALS gene could be obtained from a cDNA library derived from the wild type; made in house; host or cells: E. coli JM 105, pGEX-2T; crude enzyme solution (sonicate supernatant); conditions: crude enzyme from E. coli, valine added
# T1 sequence (Q6K2E8 44-644): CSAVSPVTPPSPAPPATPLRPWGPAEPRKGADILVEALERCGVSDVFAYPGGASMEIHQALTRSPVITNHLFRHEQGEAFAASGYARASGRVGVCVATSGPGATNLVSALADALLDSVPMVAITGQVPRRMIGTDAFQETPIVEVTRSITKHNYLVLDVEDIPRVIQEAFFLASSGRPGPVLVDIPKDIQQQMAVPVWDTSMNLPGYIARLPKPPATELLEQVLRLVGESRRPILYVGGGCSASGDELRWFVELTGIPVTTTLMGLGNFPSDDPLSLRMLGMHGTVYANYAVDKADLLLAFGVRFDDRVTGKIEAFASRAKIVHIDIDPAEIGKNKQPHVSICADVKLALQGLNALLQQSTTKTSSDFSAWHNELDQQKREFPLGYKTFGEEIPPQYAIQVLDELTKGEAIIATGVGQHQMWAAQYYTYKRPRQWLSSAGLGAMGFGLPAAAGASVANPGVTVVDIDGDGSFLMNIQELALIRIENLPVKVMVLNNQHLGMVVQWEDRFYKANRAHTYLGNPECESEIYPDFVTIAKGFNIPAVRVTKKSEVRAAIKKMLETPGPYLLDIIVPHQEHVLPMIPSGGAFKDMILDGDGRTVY
# Description: Preparation and purification of ALS from E. coli were performed by the following method. First, a pellet of the transformant E. coli stored at −80° C. was suspended in ALS extraction buffer (potassium phosphate buffer (pH 7.5) containing 30% glycerol and 0.5 mM MgCl2). Specifically, 2.5 ml of the buffer was added to the pellet obtained from 50 ml of the culture solution. The suspension was subjected to ultrasonication (Heat Systems-Ultrasonics, Sonicator W-225R, micro chip, output control 8, interval of approximately 1 sec, twice (40 sec each)), and subjected to centrifugation at 15000×g, 4° C. for 20 min, thereby obtaining the supernatant as a crude enzyme solution.
# Herbicide sensitivity of mutant ALS protein was examined using the crude enzyme solution obtained in Example 4. Herbicide sensitivity test was performed in the manner same as that in Example 2. In the herbicide sensitivity test, three herbicides, bispyribac-sodium, pyrithiobac-sodium, and pyriminobac were used as PC herbicides; four drugs, chlorsulfuron, bensulfuron-methyl, pyrazosulfuron-ethyl and imazosulfuron were used as sulfonylurea herbicides; and two drugs, imazaquin, and imazapyr were used as imidazolinon herbicides. […]
# [1] = system: callus of a rice plant (Nippon-bare) transformed with a mutant ALS gene; experiment: Bispyribac-sodium sensitivity of calli of rice transformed with the mutant ALS gene; type: cell-based
# Description: Simultaneously with the above described potting, part of the calli which had not redifferentiated (9 calli) (FIG. 35) was sub-cultured on solid media for production of a bispyribac-sodium resistant callus used in Example 1. The solid media contained 10 μM bispyribac-sodium. Thus, 6 out of 9 calli grew normally. […] Accordingly, 6 calli grown on a solid medium containing 10 μM bispyribac-sodium were all shown to have strong bispyribac-sodium resistance.
smiles,measurement,setting,value
"COc1cc(OC)nc(Oc2cccc(Oc3nc(OC)cc(OC)n3)c2C(=O)[O-])n1.[Na+] [Bispyribac-sodium, bispyribac-sodium]",wild type ALS activity in the presence of herbicide,wild type ALS protein,inhibited
same,calli that grew normally on solid medium,[1]; 10 μM bispyribac-sodium,6 out of 9
same,drug sensitivity of transformant callus in liquid culture,[1]; one of the 6 normally growing calli,showed bispyribac-sodium resistance
